In ChEMBL document CHEMBL1201862, “PubChem BioAssay data set” (2004):
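Five concentrations, 48 hours, 96-well plates. The concentration for 50% growth inhibition is given as GI50.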 The source made the active and inactive calls. Cut-off read from the data, not from the text of the source: active = GI50 up to about 1.1 µM and inactive = higher.

What was measured:
Experiment in all cases: inhibition of tumour cell growth, NCI panel, 48 h
Malme-3M = tested on: Malme-3M
HCC 2998 = tested on: HCC 2998
NCI-H226 = tested on: NCI-H226
HL-60 = tested on: HL-60
A498 = tested on: A498
MCF7 = tested on: MCF7
OVCAR-4 = tested on: OVCAR-4
SK-MEL-2 = tested on: SK-MEL-2
CCRF-CEM = tested on: CCRF-CEM
NCI-H522 = tested on: NCI-H522
HT-29 = tested on: HT-29
HOP-62 = tested on: HOP-62
COLO 205 = tested on: COLO 205
NCI-H23 = tested on: NCI-H23
OVCAR-5 = tested on: OVCAR-5
OVCAR-8 = tested on: OVCAR-8
786-0 = tested on: 786-0
TK-10 = tested on: TK-10
ACHN = tested on: ACHN
SR = tested on: SR

Measured: GI50

COc1cc(/C=C/C(=O)O)ccc1C(=O)OCc1ccccc1
inactive: Malme-3M > 100 µM | HCC 2998 > 100 µM | NCI-H226 > 100 µM | HL-60 > 100 µM | A498 > 100 µM | MCF7 > 100 µM | OVCAR-4 > 100 µM | SK-MEL-2 > 100 µM | CCRF-CEM > 100 µM | NCI-H522 > 100 µM | HT-29 > 100 µM | HOP-62 > 100 µM | COLO 205 > 100 µM | NCI-H23 > 100 µM | OVCAR-5 > 100 µM | OVCAR-8 > 100 µM

O=C(CCC(=O)OCC1OC(O)(CC2OC(CO)C(O)C(O)C2O)C(O)C1O)OCc1ccccc1 (configuration not stated)
inactive: Malme-3M > 100 µM | HCC 2998 > 100 µM | NCI-H226 > 100 µM | HL-60 > 100 µM | A498 > 100 µM | MCF7 > 100 µM | 786-0 > 100 µM | OVCAR-4 > 100 µM | SK-MEL-2 > 100 µM | CCRF-CEM 67.1 µM | NCI-H522 > 100 µM | HT-29 > 100 µM | HOP-62 > 100 µM | COLO 205 > 100 µM | TK-10 > 100 µM | NCI-H23 > 100 µM | OVCAR-5 > 100 µM | OVCAR-8 > 100 µM | ACHN > 100 µM

O=c1sc(Nc2ccc3ccccc3c2Cl)nc2ccccc12
inactive: Malme-3M > 100 µM | HCC 2998 > 100 µM | HL-60 26.5 µM | MCF7 > 100 µM | 786-0 > 100 µM | OVCAR-4 > 100 µM | SR 7.08 µM | SK-MEL-2 > 100 µM | CCRF-CEM > 100 µM | NCI-H522 > 100 µM | HT-29 > 100 µM | HOP-62 > 100 µM | COLO 205 > 100 µM | TK-10 > 100 µM | NCI-H23 > 100 µM | OVCAR-5 > 100 µM | ACHN > 100 µM

Nc1cc(O)c2cc(/N=N/c3ccc(/N=N/c4ccc(/N=N/c5ccc6cc(S(=O)(=O)O)cc(S(=O)(=O)O)c6c5)c5ccccc45)c4cc(S(=O)(=O)O)ccc34)c(S(=O)(=O)O)cc2c1
inactive: Malme-3M > 100 µM | HCC 2998 > 100 µM | NCI-H226 36.7 µM | HL-60 42.3 µM | A498 > 100 µM | MCF7 > 100 µM | OVCAR-4 > 100 µM | SK-MEL-2 > 100 µM | CCRF-CEM 61.5 µM | NCI-H522 98.6 µM | HT-29 > 90.2 µM | HOP-62 > 100 µM | COLO 205 > 100 µM | NCI-H23 > 100 µM | OVCAR-5 > 100 µM | OVCAR-8 > 100 µM

CCOC(=O)C(NC(=O)c1cccc(Cl)c1)(Nc1ccc(S(=O)(=O)Nc2cc(C)on2)cc1)C(F)(F)F (configuration not stated)
inactive: Malme-3M > 100 µM | HCC 2998 > 100 µM | NCI-H226 > 100 µM | HL-60 > 100 µM | A498 > 100 µM | MCF7 > 100 µM | 786-0 > 100 µM | OVCAR-4 > 100 µM | SK-MEL-2 > 100 µM | CCRF-CEM > 100 µM | NCI-H522 > 100 µM | HT-29 > 100 µM | HOP-62 > 100 µM | COLO 205 > 100 µM | TK-10 > 100 µM | NCI-H23 > 100 µM | OVCAR-5 > 100 µM | OVCAR-8 > 100 µM | ACHN > 100 µM

O=C1OC(=O)c2c1cc1cc3c(cc1c2-c1ccc2c(c1)OCO2)OCO3
inactive: Malme-3M > 100 µM | HCC 2998 > 100 µM | NCI-H226 > 100 µM | HL-60 > 100 µM | A498 > 100 µM | MCF7 > 100 µM | 786-0 22 µM | OVCAR-4 > 100 µM | SK-MEL-2 > 100 µM | CCRF-CEM > 100 µM | NCI-H522 > 100 µM | HT-29 > 100 µM | COLO 205 > 100 µM | TK-10 > 100 µM | NCI-H23 > 100 µM | OVCAR-5 > 100 µM | OVCAR-8 > 100 µM | ACHN > 100 µM

CC(C)C(=O)Nc1cc(C(F)(F)F)ccc1[N+](=O)[O-]
inactive: Malme-3M 68.5 µM | HCC 2998 > 100 µM | NCI-H226 > 100 µM | HL-60 94 µM | A498 > 100 µM | MCF7 > 100 µM | 786-0 > 100 µM | OVCAR-4 > 100 µM | SK-MEL-2 > 100 µM | CCRF-CEM > 100 µM | NCI-H522 > 100 µM | HT-29 > 100 µM | HOP-62 > 100 µM | COLO 205 > 100 µM | TK-10 > 100 µM | NCI-H23 > 100 µM | OVCAR-5 > 100 µM | OVCAR-8 > 100 µM | ACHN > 100 µM

COc1ccc(CC2(O)C3CC4CCC2C4C3)cc1 (configuration not stated)
inactive: Malme-3M > 100 µM | NCI-H226 88.1 µM | HL-60 51.1 µM | MCF7 65.6 µM | 786-0 > 100 µM | OVCAR-4 > 100 µM | SR 58.7 µM | SK-MEL-2 > 100 µM | CCRF-CEM 42 µM | NCI-H522 88.3 µM | HT-29 58.1 µM | HOP-62 > 100 µM | COLO 205 74.3 µM | TK-10 69.3 µM | NCI-H23 64.4 µM | OVCAR-5 > 100 µM | OVCAR-8 > 100 µM | ACHN > 100 µM
